Measurements: patent US9688857B2, “Fluorescent probe” (THE UNIVERSITY OF TOKYO, priority 2011, dated 2017)
One block for each compound: values may come before it.

Legend:
[1] = Optical characteristics, Table 3; type: physicochemical; settings: for λmax, fl: 0.1 M phosphate buffer (pH 9) containing 1% DMSO; for Φfl: 0.1 M phosphate buffer (pH 9), 1% DMSO, standard 2-Me TokyoMagenta (0.42); for λmax, abs: 0.1 M phosphate buffer containing 1% DMSO
Protocol: The measurement was performed in a 0.1 M phosphate buffer (pH 9) containing 1% DMSO. pKa was obtained from the absorbance measured in a phosphate buffer (pH 9) by single-phase or two-phase curve fitting. The quantum yield was obtained by using the quantum yield of 2-Me TokyoMagenta (0.42) in a 0.1 M phosphate buffer (pH 9) as the standard.

[2] = Absorption and fluorescence profiles at various pH values (Example 2); type: physicochemical; settings: for maximal absorption wavelength: 1 μM in 0.1 M phosphate buffer, 1% DMSO
Protocol: The measurement was performed with changing pH. In this specification, Me means methyl group. […] The measurement was performed by using a 1 μM solution of 2-Me TokyoMagenta dissolved in a 0.1 M phosphate buffer containing 1% dimethyl sulfoxide (DMSO).
Absorption and fluorescence profiles of 2-Me TokyoMagenta obtained in the step (g) mentioned above were measured at various pH values. […] It is considered that 2-Me TokyoMagenta exists in an equilibrated state of the non-dissociated form (neutral form) and the dissociated form (anion form) mentioned below depending on pH.

[3] = Comparison of absorption wavelengths at pH 3 and 9 in sodium phosphate buffer (Table 1); type: physicochemical; set-up: λmax: unit not given beside the values; settings: for λmax: sodium phosphate buffer
Protocol: The results of comparison of the absorption wavelengths of 2-Me TokyoMagenta and 2-Me TokyoGreen (9-(2′-methylphenyl)-xanthen-3-one) having oxygen atom at the 10-position of the xanthene ring are shown in FIG. 2 and Table 1. The measurement was performed at pH 3 and 9 in a sodium phosphate buffer.

[4] = Optical characteristics, Table 2; type: physicochemical; settings: phosphate buffer (pH 9)
Protocol: The measurement was performed at pH 9.

[5] = physchem; type: physicochemical
Protocol: In the table, the items attached with the letter a were measured in a phosphate buffer (pH 9), and the item attached with the letter b was measured in a 0.1 M phosphate buffer containing 1% DMSO.
The measurement was performed in a 0.1 M phosphate buffer (pH 9) containing 1% DMSO. pKa was obtained from the absorbance measured in a phosphate buffer (pH 9) by single-phase or two-phase curve fitting.

[6] = Fluorescence profiles at various pH values, excitation 471 nm (Example 6); type: physicochemical; settings: shift of pH from the acidic side to the alkaline side
Protocol: The measurement was performed with changing pH (excitation wavelength, 471 nm) by using a 1 μM solution of 2-Me TokyoMagenta dissolved in a 0.1 M phosphate buffer containing 1% dimethyl sulfoxide (DMSO).
Absorption and fluorescence profiles of 2-Me TokyoMagenta obtained in the step (g) mentioned above were measured at various pH values (excitation wavelength, 471 nm). It was confirmed that, with the shift of pH from the acidic side to the alkaline side, fluorescence intensity decreased around 590 nm, and fluorescence intensity increased around 560 nm.

[7] = biological target: T1, β-galactosidase (Escherichia coli, UniProt P00722); experiment: Hydrolysis reaction by β-galactosidase monitored by fluorescence intensity over time; type: biochemical; settings: 1 μM probe, 37° C., 0.1 M sodium phosphate buffer (pH 7.4), 0.1% DMSO, one unit β-galactosidase
Excerpt: As a control, 2-Me-4-OMe TokyoGreen βgal was used, which had been already widely used as a fluorescent probe for β-galactosidase measurement.
Advance of the hydrolysis reaction of 2-Me TokyoMagenta βgal by β-galactosidase was monitored by periodically measuring fluorescence intensity. As a control, 2-Me-4-OMe TokyoGreen βgal (9-(4′-methoxy-2′-methylphenyl)-6-(β-D-galactopyranosyloxy)-xanthen-3-one), which had been already widely used as a fluorescent probe for β-galactosidase measurement, was used. The reaction was performed at 37° C. in a 0.1 M sodium phosphate buffer (pH 7.4) containing 1 μM 2-Me TokyoMagenta βgal or 2-Me-4-OMe TokyoGreen βgal and 0.1% dimethyl sulfoxide. One unit (1.3 μg) of β-galactosidase was added 40 seconds afterward.
Target sequence in this assay (P00722 2-1024): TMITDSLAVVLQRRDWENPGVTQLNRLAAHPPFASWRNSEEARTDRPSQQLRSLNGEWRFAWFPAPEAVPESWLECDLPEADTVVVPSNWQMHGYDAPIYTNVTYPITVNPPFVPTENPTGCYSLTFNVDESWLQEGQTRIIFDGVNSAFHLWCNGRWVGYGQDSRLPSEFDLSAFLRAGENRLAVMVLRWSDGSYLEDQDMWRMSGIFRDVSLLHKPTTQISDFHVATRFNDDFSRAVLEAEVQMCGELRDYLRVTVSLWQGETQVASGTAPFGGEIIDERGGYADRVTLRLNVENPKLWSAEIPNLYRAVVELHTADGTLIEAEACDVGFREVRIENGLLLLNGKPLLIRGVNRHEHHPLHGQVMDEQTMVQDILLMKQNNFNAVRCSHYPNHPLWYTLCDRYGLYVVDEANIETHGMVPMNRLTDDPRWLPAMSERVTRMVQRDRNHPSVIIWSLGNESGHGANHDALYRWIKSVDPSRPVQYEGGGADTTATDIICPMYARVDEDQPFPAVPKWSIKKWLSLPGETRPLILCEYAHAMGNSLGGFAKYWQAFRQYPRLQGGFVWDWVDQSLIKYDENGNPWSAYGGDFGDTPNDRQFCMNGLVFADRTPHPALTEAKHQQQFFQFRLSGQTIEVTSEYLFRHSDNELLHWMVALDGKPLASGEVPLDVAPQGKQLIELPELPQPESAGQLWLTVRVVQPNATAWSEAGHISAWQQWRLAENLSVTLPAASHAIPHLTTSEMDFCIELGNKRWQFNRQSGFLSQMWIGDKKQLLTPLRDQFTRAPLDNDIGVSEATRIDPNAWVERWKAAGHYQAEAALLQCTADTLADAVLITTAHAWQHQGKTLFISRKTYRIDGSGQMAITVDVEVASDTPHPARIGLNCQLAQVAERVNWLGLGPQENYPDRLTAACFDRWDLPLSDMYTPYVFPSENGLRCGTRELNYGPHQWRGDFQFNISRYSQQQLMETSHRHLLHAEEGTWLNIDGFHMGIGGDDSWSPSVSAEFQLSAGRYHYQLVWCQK

[8] = biological target: T1, β-galactosidase; experiment: Absorption spectra before and after treatment with β-galactosidase; type: biochemical; settings: 0.1 M sodium phosphate buffer (pH 7.0), 0.1% DMSO
Protocol: The characteristics of 2-Me TokyoMagenta βgal, which was designed as a fluorescent probe for β-galactosidase measurement, as an enzyme substrate and a fluorescent probe were evaluated. There are shown absorption spectra (FIG. 3, upper left graph) and fluorescence spectra (FIG. 3, upper right graph (excitation wavelength, 582 nm) and FIG. 3, lower left graph (excitation wavelength, 448 nm)) of 2-Me TokyoMagenta βgal measured before and after a treatment with β-galactosidase (6 units) in a 0.1 M sodium phosphate buffer (pH 7.0) containing 0.1% dimethyl sulfoxide. The λmax values measured before and after the reaction were 448 nm (before the reaction), and 582 nm (after the reaction), respectively.
Target sequence in this assay (P00722 2-1024): as above

[9] = biological target: T1, β-galactosidase; experiment: Measurement of intracellular β-galactosidase in HEK293 cells (lacZ(+) or lacZ(−)); type: cell-based; set-up: expressed in transfected cells; host or cells: HEK293 lacZ(+); settings: 10 μM, 37° C., 30 minutes, excitation 580 nm, detection 600 to 620 nm
Protocol: The bars shown in the photographs indicate 30 μm.
2-Me TokyoMagenta βgal was introduced into cells, and it was confirmed that it functioned as a fluorescent probe for β-galactosidase measurement. The HEK293 cells (lacZ(+) or lacZ(−)) were incubated with 10 μM 2-Me TokyoMagenta βgal at 37° C. for 30 minutes in the Dulbecco's modified Eagle medium (DMEM) containing 0.1% dimethyl sulfoxide, and fluorescence spectrum was measured with an excitation wavelength of 580 nm and detection wavelength of 600 to 620 nm.
Target sequence in this assay (P00722 whole entry): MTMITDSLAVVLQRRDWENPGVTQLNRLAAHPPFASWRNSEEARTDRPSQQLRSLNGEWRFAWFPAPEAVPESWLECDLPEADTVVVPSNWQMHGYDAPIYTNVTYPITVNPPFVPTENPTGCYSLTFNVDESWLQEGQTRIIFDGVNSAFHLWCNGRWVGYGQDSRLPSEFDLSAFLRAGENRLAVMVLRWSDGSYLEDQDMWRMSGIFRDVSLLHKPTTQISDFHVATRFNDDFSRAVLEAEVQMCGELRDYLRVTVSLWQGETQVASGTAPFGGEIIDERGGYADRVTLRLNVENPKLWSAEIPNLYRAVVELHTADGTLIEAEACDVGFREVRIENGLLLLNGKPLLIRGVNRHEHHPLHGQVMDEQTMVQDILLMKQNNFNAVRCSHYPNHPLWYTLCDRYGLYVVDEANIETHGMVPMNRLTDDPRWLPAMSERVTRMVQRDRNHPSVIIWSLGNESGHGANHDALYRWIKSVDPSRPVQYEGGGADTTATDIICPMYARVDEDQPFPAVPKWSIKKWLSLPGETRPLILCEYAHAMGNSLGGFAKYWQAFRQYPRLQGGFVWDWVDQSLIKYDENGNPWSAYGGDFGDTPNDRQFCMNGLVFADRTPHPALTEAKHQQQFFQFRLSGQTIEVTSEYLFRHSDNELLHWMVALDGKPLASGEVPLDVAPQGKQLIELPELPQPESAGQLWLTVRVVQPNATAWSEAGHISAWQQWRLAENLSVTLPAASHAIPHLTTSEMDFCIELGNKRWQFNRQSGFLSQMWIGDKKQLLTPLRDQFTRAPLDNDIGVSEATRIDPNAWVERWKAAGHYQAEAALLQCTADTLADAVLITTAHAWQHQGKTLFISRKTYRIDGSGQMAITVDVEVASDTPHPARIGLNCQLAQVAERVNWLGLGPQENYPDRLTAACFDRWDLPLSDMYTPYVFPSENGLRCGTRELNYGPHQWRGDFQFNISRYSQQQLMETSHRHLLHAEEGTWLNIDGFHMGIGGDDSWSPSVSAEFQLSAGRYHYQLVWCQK

λmax, fl [1]: 598 nm
Φfl [1]: 0.57
λmax, abs ([1]; pH 3): 465 nm
λmax, abs ([1]; pH 9): 583 nm
Structure (SMILES): Cc1ccccc1C1=C2C=CC(=O)C(F)=C2[Si](C)(C)c2c1ccc(O)c2F [2-Me DFTM]

Φfl [4]: 0.48
λabs [4]: 582 nm
λfl [4]: 601 nm
Structure (SMILES): CC[Si]1(CC)C2=CC(=O)C=CC2=C(c2ccccc2C)c2ccc(O)cc21 [2-Me DiEtTM]

λmax, fl [1]: 607 nm
Φfl [1]: 0.48
λmax, abs ([1]; pH 3): 477 nm
λmax, abs ([1]; pH 9): 595 nm
Structure (SMILES): Cc1ccccc1C1=C2C=CC(=O)C(Cl)=C2[Si](C)(C)c2c1ccc(O)c2Cl [2-Me DCTM]

λmax ([3]; Anion form (pH 9)): 492
λmax ([3]; Neutral form (pH 3)): 439
Structure (SMILES): Cc1ccccc1-c1c2ccc(=O)cc-2oc2ccccc12 [2-Me TokyoGreen, 9-(2′-methylphenyl)-xanthen-3-one, reference compound]

λmax, fl [1]: 596 nm
Φfl [1]: 0.54
λmax, abs ([1]; pH 9): 581 nm
Structure (SMILES): C[Si]1(C)C2=C(F)C(=O)C=CC2=C(c2ccccc2C(=O)O)c2ccc(O)c(F)c21 [2-COOH DFTM]

Second part, the compound before the results:

Structure (SMILES): Cc1ccccc1C1=C2C=CC(=O)C=C2[Si](C)(C)c2cc(O)ccc21 [2-Me TokyoMagenta]
maximal absorption wavelength ([2]; acidic side of pH): around 471 nm
maximal absorption wavelength ([2]; alkaline side of pH): around 582 nm
Φfl ([2]; anion form): 0.42
ε ([2]; anion form): 110000
Φfl ([2]; neutral form): 0.10
ε ([2]; neutral form): 29000
fluorescence emission with excitation light of 550 nm ([2]; shift of pH from the acidic side to the alkaline side): significantly increased
λmax ([3]; Anion form (pH 9)): 582
λmax ([3]; Neutral form (pH 3)): 471
absorption wavelength change with change of pH ([3]; compared with 2-Me TokyoGreen, pH 3 and 9): larger absorption wavelength change
Φfl [4]: 0.42
λabs [4]: 582 nm
λfl [4]: 598 nm
pKa [5]: 6.8
λmax, fl [1]: 598 nm
Φfl [1]: 0.42
λmax, abs ([1]; pH 3): 472 nm
λmax, abs ([1]; pH 9): 582 nm
fluorescence intensity around 560 nm [6]: increased
fluorescence intensity around 590 nm [6]: decreased

Structure (SMILES): C[Si]1(C)C2=C(Cl)C(=O)C=CC2=C(c2ccccc2C(=O)O)c2ccc(O)c(Cl)c21 [2-COOH DCTM]
λmax, fl [1]: 607 nm
Φfl [1]: 0.48
λmax, abs ([1]; pH 9): 591 nm

Structure (SMILES): C[Si]1(C)C2=CC(=O)C=CC2=C(c2ccccc2C(=O)O)c2ccc(O)cc21 [2-COOH TM]
λmax, fl [1]: 598 nm
Φfl [1]: 0.38
λmax, abs ([1]; pH 9): 582 nm

Structure (SMILES): COc1ccc(-c2c3ccc(=O)cc-3oc3cc(O[C@@H]4O[C@H](CO)[C@H](O)[C@H](O)[C@H]4O)ccc23)c(C)c1 [2-Me-4-OMe TokyoGreen βgal, 9-(4′-methoxy-2′-methylphenyl)-6-(β-D-galactopyranosyloxy)-xanthen-3-one, reference compound]
fluorescence response on hydrolysis by β-galactosidase [7]: fluorescence was generated by cancellation of PET

Structure (SMILES): Cc1ccccc1C1=C2C=CC(=O)C=C2[Si](C)(C)c2cc(O[C@@H]3O[C@H](CO)[C@H](O)[C@H](O)[C@H]3O)ccc21 [2-Me TokyoMagenta βgal]
λmax after the reaction ([8]; after β-galactosidase (6 units)): 582 nm
λmax before the reaction ([8]; before β-galactosidase (6 units)): 448 nm
fluorescence response on hydrolysis by β-galactosidase [7]: increase of fluorescence intensity due to red shift
fluorescence in cells ([9]; HEK293 lacZ(+) cells): fluorescence emitted by the fluorescent probe hydrolyzed by β-galactosidase was confirmed
fluorescence in cells ([9]; HEK293 lacZ(−) cells): fluorescence was not observed
